Results reported in ChEMBL document CHEMBL1131189, “Conformationally restricted analogues of 1N,12N-bisethylspermine: synthesis and growth inhibitory effects on human tumor cell lines” (1998).

Tests used:
HT-29 = assay: Growth inhibitory activity was measured for human HT-29 tumor cell line.; type: functional; settings: Homo sapiens, HT-29; read-out: ID50 (the source's name)
A549 = assay: Growth inhibitory activity was measured for human A549 tumor cell line.; type: functional; settings: Homo sapiens, A549; read-out: ID50 (the source's name)
DU-145 [1] = assay: Growth inhibitory activity was measured for human DU145 tumor cell line.; type: functional; settings: Homo sapiens, DU-145; read-out: ID50 (the source's name)
MCF7 = assay: Growth inhibitory activity was measured for human MCF-7 tumor cell line.; type: functional; settings: read-out: ID50 (the source's name)
PC-3 = assay: Growth inhibitory activity was measured for human PC-3 tumor cell line.; type: functional; settings: Homo sapiens, PC-3; read-out: ID50 (the source's name)
U-251 = assay: Growth inhibitory activity was measured for human U251MG NCI tumor cell line.; type: functional; settings: read-out: ID50 (the source's name)
DU-145 [2] = assay: The concentration levels of spermidine (SD), evaluated in DU145 cells treated with the compound concentration of 5 uM on third day of treatment.; type: functional, cell-based; settings: Homo sapiens
DU-145 [3] = assay: The concentration levels of spermidine (SD) evaluated in DU145 cells treated with the compound concentration of 0.02 uM on fifth day of treatment.; type: functional, cell-based; settings: Homo sapiens
DU-145 [4] = assay: The concentration levels of analogue evaluated in DU145 cells treated with the compound concentration of 5 uM on fifth day of treatment.; type: functional, cell-based; settings: Homo sapiens
DU-145 [5] = assay: The concentration levels of spermidine (SD), evaluated in DU145 cells treated with the compound concentration of 0.02 uM on third day of treatment.; type: functional, cell-based; settings: Homo sapiens
DU-145 [6] = assay: The concentration levels of putrescine (PU) evaluated in DU145 cells treated with the compound concentration of 5 uM on fifth day of treatment.; type: functional, cell-based; settings: Homo sapiens
DU-145 [7] = assay: The concentration levels of analogue evaluated in DU145 cells treated with the compound concentration of 5 uM on third day of treatment.; type: functional, cell-based; settings: Homo sapiens
DU-145 [8] = assay: The concentration levels of spermine (SP) evaluated in DU145 cells treated with the compound concentration of 5 uM on fifth day of treatment.; type: functional, cell-based; settings: Homo sapiens
DU-145 [9] = assay: The concentration levels of analogue evaluated in DU145 cells treated with the compound concentration of 0.02 uM on fifth day of treatment.; type: functional, cell-based; settings: Homo sapiens
DU-145 [10] = assay: The concentration levels of spermine (SP) evaluated in DU145 cells treated with the compound concentration of 0.02 uM on fifth day of treatment.; type: functional, cell-based; settings: Homo sapiens
DU-145 [11] = assay: The concentration levels of spermidine (SD) evaluated in DU145 cells treated with the compound concentration of 5 uM on fifth day of treatment.; type: functional, cell-based; settings: Homo sapiens
DU-145 [12] = assay: The concentration levels of putrescine (PU) evaluated in DU145 cells treated with the compound concentration of 5 uM on third day of treatment.; type: functional, cell-based; settings: Homo sapiens
DU-145 [13] = assay: The concentration levels of spermine (SP), evaluated in DU145 cells treated with the compound concentration of 0.02 uM on third day of treatment.; type: functional, cell-based; settings: Homo sapiens
DU-145 [14] = assay: The concentration levels of spermine (SP), evaluated in DU145 cells treated with the compound concentration of 5 uM on third day of treatment.; type: functional, cell-based; settings: Homo sapiens
DU-145 [15] = assay: The concentration levels of analogue evaluated in DU145 cells treated with the compound concentration of 0.02 uM on third day of treatment.; type: functional, cell-based; settings: Homo sapiens
DU-145 [16] = assay: The concentration levels of putrescine (PU) evaluated in DU145 cells treated with the compound concentration of 0.02 uM on third day of treatment.; type: functional, cell-based; settings: Homo sapiens
DU-145 [17] = assay: The concentration levels of putrescine (PU) evaluated in DU145 cells treated with the compound concentration of 0.02 uM on fifth day of treatment.; type: functional, cell-based; settings: Homo sapiens
DU-145 [18] = assay: The concentration levels of spermine (SP) evaluated in DU145 cells treated with the compound concentration of 10 uM on fifth day of treatment.; type: functional, cell-based; settings: Homo sapiens
DU-145 [19] = assay: The concentration levels of putrescine (PU) evaluated in DU145 cells treated with the compound concentration of 10 uM on fifth day of treatment.; type: functional, cell-based; settings: Homo sapiens
DU-145 [20] = assay: The concentration levels of spermidine (SD), evaluated in DU145 cells treated with the compound concentration of 10 uM on third day of treatment.; type: functional, cell-based; settings: Homo sapiens
DU-145 [21] = assay: The concentration levels of analogue evaluated in DU145 cells treated with the compound concentration of 10 uM on fifth day of treatment.; type: functional, cell-based; settings: Homo sapiens
DU-145 [22] = assay: The concentration levels of analogue evaluated in DU145 cells treated with the compound concentration of 10 uM on third day of treatment.; type: functional, cell-based; settings: Homo sapiens
DU-145 [23] = assay: The concentration levels of spermidine (SD) evaluated in DU145 cells treated with the compound concentration of 10 uM on fifth day of treatment.; type: functional, cell-based; settings: Homo sapiens
DU-145 [24] = assay: The concentration levels of spermine (SP), evaluated in DU145 cells treated with the compound concentration of 10 uM on third day of treatment.; type: functional, cell-based; settings: Homo sapiens
DU-145 [25] = assay: The concentration levels of putrescine (PU) evaluated in DU145 cells treated with the compound concentration of 10 uM on third day of treatment.; type: functional, cell-based; settings: Homo sapiens

CCNCCCNCCCCNCCCNCC [BIS(ETHYL)SPERMINE]
IC50 (HT-29): 430 nM
IC50 (A549): 200 nM
IC50 (DU-145 [1]): 40 nM
IC50 (MCF7): 550 nM
IC50 (PC-3): 240 nM
IC50 (U-251): 200 nM

CCNCCCNC/C=C\CNCCCNCC
Concentration (nM (10e6*cells)-1) (DU-145 [2]): 0.02
Concentration (nM (10e6*cells)-1) (DU-145 [3]): 1.73
Concentration (nM (10e6*cells)-1) (DU-145 [4]): 2.54
Concentration (nM (10e6*cells)-1) (DU-145 [5]): 1.79
IC50 (A549): 250 nM
Concentration (nM (10e6*cells)-1) (DU-145 [6]): 0.03
IC50 (DU-145 [1]): 50 nM
Concentration (nM (10e6*cells)-1) (DU-145 [7]): 2.76
Concentration (nM (10e6*cells)-1) (DU-145 [8]): 0.07
Concentration (nM (10e6*cells)-1) (DU-145 [9]): 0.03
Concentration (nM (10e6*cells)-1) (DU-145 [10]): 1.71
Concentration (nM (10e6*cells)-1) (DU-145 [11]): 0.02
Concentration (nM (10e6*cells)-1) (DU-145 [12]): 0.06
Concentration (nM (10e6*cells)-1) (DU-145 [13]): 2.99
Concentration (nM (10e6*cells)-1) (DU-145 [14]): 0.09
Concentration (nM (10e6*cells)-1) (DU-145 [15]): 0.04
Concentration (nM (10e6*cells)-1) (DU-145 [16]): 0.11
Concentration (nM (10e6*cells)-1) (DU-145 [17]): 0.04

CCNCCCNCc1ccccc1CNCCCNCC
IC50 (HT-29): > 31200 nM
Concentration (nM (10e6*cells)-1) (DU-145 [18]): 2.13
Concentration (nM (10e6*cells)-1) (DU-145 [19]): 0.06
IC50 (A549): > 31200 nM
Concentration (nM (10e6*cells)-1) (DU-145 [20]): 1.5
IC50 (MCF7): > 31200 nM
IC50 (PC-3): > 31200 nM
Concentration (nM (10e6*cells)-1) (DU-145 [21]): 1.25
Concentration (nM (10e6*cells)-1) (DU-145 [22]): 0.82
Concentration (nM (10e6*cells)-1) (DU-145 [23]): 1.84
Concentration (nM (10e6*cells)-1) (DU-145 [24]): 2.7
IC50 (U-251): > 31200 nM
Concentration (nM (10e6*cells)-1) (DU-145 [25]): 0.12
